Source: patent US20250361268A1, “NOVEL ANTI-INFLAMMATORY PEPTIDE AND USE THEREOF” (NOVACELL TECHNOLOGY INC., priority 2022, published 2025)
Peptide text beside a SMILES is read from it.

Assays:
FPR2 = target: T1, FPR2 (Homo sapiens, UniProt P25090); test: Change in calcium activity by peptide (Fura-2) in RBL cells overexpressing FPR2; format: cell-based; conditions: calcium activity (Fura-2), graded per Table 3, read-out: EC50 for [Ca^2+] FPR2
T1 construct: expressed in transfected cells; host or cells: RBL cells (RBL-FPR2)
T1 sequence (P25090 1-351): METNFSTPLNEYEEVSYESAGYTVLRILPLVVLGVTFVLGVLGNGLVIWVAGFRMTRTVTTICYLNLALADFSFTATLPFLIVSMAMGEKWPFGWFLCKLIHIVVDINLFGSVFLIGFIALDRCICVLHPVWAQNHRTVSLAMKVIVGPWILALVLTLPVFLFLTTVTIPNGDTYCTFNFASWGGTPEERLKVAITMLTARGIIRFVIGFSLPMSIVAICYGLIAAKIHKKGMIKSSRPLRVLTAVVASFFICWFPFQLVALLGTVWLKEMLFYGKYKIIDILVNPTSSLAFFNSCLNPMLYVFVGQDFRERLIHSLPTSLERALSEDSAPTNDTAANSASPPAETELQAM
Method in brief: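 Peptide-induced intracellular calcium change measured by Fura-2 fluorescence on a plate reader. Cells: RBL line overexpressing FPR2, dye-loaded 1 h at 37 °C then 30 min at RT in dark; peptides from 0.5 mM water/50% DMSO stocks, diluted in HBSS with 20 mM HEPES.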

FPR1 = target: T2, FPR1 (Homo sapiens, UniProt P21462); test: Change in calcium activity by peptide, FPR1 activation effect; format: cell-based; conditions: calcium activity (Fura-2), graded per Table 3, read-out: EC50 for [Ca^2+] FPR1
T2 sequence (P21462 1-350): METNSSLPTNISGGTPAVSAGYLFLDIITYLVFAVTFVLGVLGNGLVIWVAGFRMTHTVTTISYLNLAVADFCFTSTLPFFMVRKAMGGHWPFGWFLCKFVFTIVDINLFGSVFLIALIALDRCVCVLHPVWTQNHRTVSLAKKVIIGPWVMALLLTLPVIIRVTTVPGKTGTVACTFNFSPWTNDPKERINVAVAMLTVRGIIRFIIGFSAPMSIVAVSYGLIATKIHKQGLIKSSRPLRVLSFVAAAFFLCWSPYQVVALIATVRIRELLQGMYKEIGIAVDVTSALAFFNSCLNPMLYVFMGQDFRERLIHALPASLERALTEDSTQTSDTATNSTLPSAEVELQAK
Method in brief: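 Calcium flux induced by peptide addition was monitored on a FlexStation 3 plate reader. Before this, cells seeded a day earlier (3×10^5/well) took up the Fura-2 dye for 1 h at 37 °C plus 30 min dark at room temperature.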

Compound	EC50 (FPR2) [nM]	EC50 (FPR1) [nM]
CCCC(=O)N[C@H](C(=O)N[C@@H](CCCCN)C(=O)N[C@@H](Cc1ccc(O)cc1)C(=O)N[C@@H](CCCCN)C(=O)N[C@H](C(=O)N[C@H](CCSC)C(N)=O)C(C)C)[C@@H](C)CC [Peptide 136] (HELM PEPTIDE1{[CCCC(=O)[*:2]].I.K.Y.K.V.[dM].[am]}$$$$V2.0)	< 10	> 10000
CSCC[C@@H](NC(=O)[C@H](Cc1ccc(O)cc1)NC(=O)[C@H](Cc1c[nH]c2ccccc12)NC(=O)[C@H](Cc1ccc(O)cc1)NC(=O)[C@H](CCCCN)NC(=O)[C@H](Cc1c[nH]c2ccccc12)NC(=O)[C@H](CCCCN)NC(C)=O)C(N)=O [Peptide 80] (HELM PEPTIDE1{[ac].K.W.K.Y.W.Y.[dM].[am]}$$$$V2.0)	< 10	> 10000
CCCCCCCC(=O)N[C@@H](CCSC)C(=O)N[C@@H](CCCNC(=N)N)C(=O)N[C@@H](Cc1ccc(O)cc1)C(=O)N[C@@H](Cc1c[nH]c2ccccc12)C(=O)N[C@@H](Cc1ccc(O)cc1)C(=O)N[C@H](CCSC)C(N)=O [Peptide 88] (HELM PEPTIDE1{[CCCCCCCC(=O)[*:2]].M.R.Y.W.Y.[dM].[am]}$$$$V2.0)	11 to 100	> 10000
CSCC[C@H](NC(=O)[C@H](CCCNC(=N)N)NC(C)=O)C(=O)N[C@@H](CCCNC(=N)N)C(=O)N[C@@H](Cc1ccc(O)cc1)C(=O)N[C@@H](Cc1c[nH]c2ccccc12)C(=O)N[C@H](C(=O)N[C@H](CCSC)C(N)=O)C(C)C [Peptide 104] (HELM PEPTIDE1{[ac].R.M.R.Y.W.V.[dM].[am]}$$$$V2.0)	< 10	1000 to 10000
CCCC(=O)N[C@@H](CCCNC(=N)N)C(=O)N[C@@H](CCSC)C(=O)N[C@@H](CCCNC(=N)N)C(=O)N[C@@H](Cc1ccc(O)cc1)C(=O)N[C@@H](CCCCN)C(=O)N1CCC[C@H]1C(=O)N[C@H](CCSC)C(N)=O [Peptide 52] (HELM PEPTIDE1{[CCCC(=O)[*:2]].R.M.R.Y.K.P.[dM].[am]}$$$$V2.0)	< 10	> 10000
CSCC[C@H](NC(=O)[C@H](CCCCN)NC(C)=O)C(=O)N[C@@H](CCCCN)C(=O)N[C@@H](Cc1ccc(O)cc1)C(=O)N[C@@H](CCCCN)C(=O)N1CCC[C@H]1C(=O)N[C@H](CCSC)C(N)=O [Peptide 67] (HELM PEPTIDE1{[ac].K.M.K.Y.K.P.[dM].[am]}$$$$V2.0)	< 10	> 10000
CSCC[C@H](NC(=O)[C@H](CCCNC(=N)N)NC(C)=O)C(=O)N[C@@H](CCCNC(=N)N)C(=O)N[C@@H](Cc1ccc(O)cc1)C(=O)N[C@@H](CCCCN)C(=O)N1CCC[C@H]1C(=O)N[C@H](CCSC)C(N)=O [Peptide 51] (HELM PEPTIDE1{[ac].R.M.R.Y.K.P.[dM].[am]}$$$$V2.0)	< 10	> 10000
CC[C@H](C)[C@H](N)C(=O)N[C@@H](CCCCN)C(=O)N[C@@H](Cc1ccc(O)cc1)C(=O)N[C@@H](CCCCN)C(=O)N[C@H](C(=O)N[C@H](CCSC)C(N)=O)C(C)C [Peptide 134] (HELM PEPTIDE1{I.K.Y.K.V.[dM].[am]}$$$$V2.0)	< 10	> 10000
CC[C@H](C)[C@H](N)C(=O)N[C@@H](CCCCN)C(=O)N[C@@H](Cc1ccccc1)C(=O)N[C@@H](Cc1c[nH]c2ccccc12)C(=O)N[C@@H](Cc1ccc(O)cc1)C(=O)N[C@H](CCSC)C(N)=O [Peptide 128] (HELM PEPTIDE1{I.K.F.W.Y.[dM].[am]}$$$$V2.0)	11 to 100	> 10000
CSCC[C@H](NC(C)=O)C(=O)N[C@@H](CCCNC(=N)N)C(=O)N[C@@H](Cc1ccc(O)cc1)C(=O)N[C@@H](CCCCN)C(=O)N[C@H](C(=O)N[C@H](CCSC)C(N)=O)C(C)C [Peptide 14] (HELM PEPTIDE1{[ac].M.R.Y.K.V.[dM].[am]}$$$$V2.0)	< 10	1000 to 10000
CSCC[C@@H](NC(=O)[C@@H](NC(=O)[C@H](Cc1ccc(O)cc1)NC(=O)[C@H](Cc1ccc(O)cc1)NC(=O)[C@H](CCCNC(=N)N)NC(=O)[C@H](Cc1c[nH]c2ccccc12)NC(C)=O)C(C)C)C(N)=O [Peptide 95] (HELM PEPTIDE1{[ac].W.R.Y.Y.V.[dM].[am]}$$$$V2.0)	11 to 100	101 to 1000
CSCC[C@@H](NC(=O)[C@H](Cc1ccc(O)cc1)NC(=O)[C@H](Cc1c[nH]c2ccccc12)NC(=O)[C@H](Cc1ccc(O)cc1)NC(=O)[C@H](CCCNC(=N)N)NC(=O)[C@H](Cc1c[nH]c2ccccc12)NC(=O)[C@@H](N)CCCNC(=N)N)C(N)=O [Peptide 77] (HELM PEPTIDE1{R.W.R.Y.W.Y.[dM].[am]}$$$$V2.0)	11 to 100	> 10000
CSCC[C@@H](NC(=O)[C@H](Cc1ccc(O)cc1)NC(=O)[C@H](Cc1ccccc1)NC(=O)[C@H](Cc1ccc(O)cc1)NC(=O)[C@H](CCCNC(=N)N)NC(=O)[C@H](Cc1c[nH]c2ccccc12)NC(=O)[C@@H](N)CCCNC(=N)N)C(N)=O [Peptide 156] (HELM PEPTIDE1{R.W.R.Y.F.Y.[dM].[am]}$$$$V2.0)	< 10	> 10000
CSCC[C@H](NC(C)=O)C(=O)N[C@@H](CCCNC(=N)N)C(=O)N[C@@H](Cc1ccc(O)cc1)C(=O)N[C@@H](Cc1c[nH]c2ccccc12)C(=O)N1CCC[C@H]1C(=O)N[C@H](CCSC)C(N)=O [Peptide 111] (HELM PEPTIDE1{[ac].M.R.Y.W.P.[dM].[am]}$$$$V2.0)	< 10	1000 to 10000
CSCC[C@H](NC(=O)[C@@H](N)CCCNC(=N)N)C(=O)N[C@@H](CCCNC(=N)N)C(=O)N[C@@H](Cc1ccc(O)cc1)C(=O)N[C@@H](CCCCN)C(=O)N[C@H](C(=O)N[C@H](CCSC)C(N)=O)C(C)C [Peptide 5] (HELM PEPTIDE1{R.M.R.Y.K.V.[dM].[am]}$$$$V2.0)	< 10	> 10000
CSCC[C@H](N)C(=O)N[C@@H](CCCNC(=N)N)C(=O)N[C@@H](Cc1ccc(O)cc1)C(=O)N[C@@H](CCCCN)C(=O)N[C@@H](Cc1ccc(O)cc1)C(=O)N[C@H](CCSC)C(N)=O [Peptide 41] (HELM PEPTIDE1{M.R.Y.K.Y.[dM].[am]}$$$$V2.0)	< 10	> 10000
CSCC[C@H](N)C(=O)N[C@@H](CCCCN)C(=O)N[C@@H](Cc1ccc(O)cc1)C(=O)N[C@@H](Cc1c[nH]c2ccccc12)C(=O)N[C@@H](Cc1ccc(O)cc1)C(=O)N[C@H](CCSC)C(N)=O [Peptide 89] (HELM PEPTIDE1{M.K.Y.W.Y.[dM].[am]}$$$$V2.0)	< 10	> 10000
CSCC[C@H](NC(C)=O)C(=O)N[C@@H](CCCNC(=N)N)C(=O)N[C@@H](Cc1ccc(O)cc1)C(=O)N[C@@H](Cc1c[nH]c2ccccc12)C(=O)N[C@H](C(=O)N[C@H](CCSC)C(N)=O)C(C)C [Peptide 105] (HELM PEPTIDE1{[ac].M.R.Y.W.V.[dM].[am]}$$$$V2.0)	< 10	101 to 1000
CSCC[C@@H](NC(=O)[C@@H](NC(=O)[C@H](Cc1c[nH]c2ccccc12)NC(=O)[C@H](Cc1ccc(O)cc1)NC(=O)[C@H](CCCNC(=N)N)NC(=O)[C@H](Cc1c[nH]c2ccccc12)NC(=O)[C@@H](N)CCCNC(=N)N)C(C)C)C(N)=O [Peptide 101] (HELM PEPTIDE1{R.W.R.Y.W.V.[dM].[am]}$$$$V2.0)	< 10	1000 to 10000
CSCC[C@@H](NC(=O)[C@@H]1CCCN1C(=O)[C@H](Cc1c[nH]c2ccccc12)NC(=O)[C@H](Cc1ccc(O)cc1)NC(=O)[C@H](CCCNC(=N)N)NC(=O)[C@H](Cc1c[nH]c2ccccc12)NC(=O)[C@H](CCCNC(=N)N)NC(C)=O)C(N)=O [Peptide 117] (HELM PEPTIDE1{[ac].R.W.R.Y.W.P.[dM].[am]}$$$$V2.0)	< 10	101 to 1000
CSCC[C@@H](NC(=O)[C@@H](NC(=O)[C@H](CCCNC(=N)N)NC(=O)[C@H](Cc1ccc(O)cc1)NC(=O)[C@H](CCCNC(=N)N)NC(=O)[C@H](Cc1c[nH]c2ccccc12)NC(=O)[C@@H](N)CCCNC(=N)N)[C@@H](C)O)C(N)=O [Peptide 153] (HELM PEPTIDE1{R.W.R.Y.R.T.[dM].[am]}$$$$V2.0)	11 to 100	> 10000
CCCCCCCC(=O)N[C@@H](CCCNC(=N)N)C(=O)N[C@@H](CCSC)C(=O)N[C@@H](CCCNC(=N)N)C(=O)N[C@@H](Cc1ccc(O)cc1)C(=O)N[C@@H](Cc1ccc(O)cc1)C(=O)N[C@H](C(=O)N[C@H](CCSC)C(N)=O)C(C)C [Peptide 99] (HELM PEPTIDE1{[CCCCCCCC(=O)[*:2]].R.M.R.Y.Y.V.[dM].[am]}$$$$V2.0)	11 to 100	1000 to 10000
CC[C@H](C)[C@H](NC(C)=O)C(=O)N[C@@H](CCCCN)C(=O)N[C@@H](Cc1ccc(O)cc1)C(=O)N[C@@H](CCCCN)C(=O)N[C@H](C(=O)N[C@H](CCSC)C(N)=O)C(C)C [Peptide 135] (HELM PEPTIDE1{[ac].I.K.Y.K.V.[dM].[am]}$$$$V2.0)	< 10	> 10000
